Source: patent publication US20240100013A1, “SOTAGLIFLOZIN FOR IMPROVING LEFT ATRIAL FUNCTION” (CHARITÉ-UNIVERSITÄTSMEDIZIN BERLIN, priority 2021, published 2024)

Columns and labels:
[1] = system: LA cardiomyocytes; experiment: Mitochondrial structure and Ca2+ uptake in LA cardiomyocytes; format: cell-based, rat; conditions: HFpEF
Description: For cell membrane permeabilization and subsequent measurements of mitochondrial Ca^2+ uptake (See ‘Mitochondrial structure and Ca^2+ uptake’) wash and internal solutions were used. Wash solution contained (in mM): 100 potassium acetate, 15 KCl, 0.35 EGTA, 0.75 MgCl2, 10 HEPES; pH adjusted to 7.2 with KOH. Internal solution contained (in mM): 125 KCl, 10 NaCl, 20 HEPES, 5 pyruvate, 2 maleic acid, 2 glutamic acid, 0.5 KH2PO4, 0.5 MgCl2, 5 EGTA, 0.002 free Ca^2+(MaxChelator), 15 BDM, pH adjusted to 7.2 with KOH. For permeabilization, 0.005% saponin was added to the internal solution.
Mitochondrial structure and Ca^2+ uptake. Mitochondrial structure was visualized by local thresholding of two-dimensional images acquired with MitoTracker Red (FIGS. 5A-B, 6D) and MitoTracker Green (FIGS. 4C-F) at an LSM 800 laser scanning microscope (Zeiss, Oberkochen, Germany). The fraction of mitochondria in relation to cell surface was taken as a measure of mitochondrial density. The averaged perimeter to area ratio of mitochondrial structures per cell was calculated as an indicator of mitochondrial fission using a 2-step Otsu thresholding algorithm. See Hohendanner F, Ljubojevic S, MacQuaide N, Sacherer M, Sedej S, Biesmans L, Wakula P, Platzer D, Sokolow S, Herchuelz A et al: “Intracellular dyssynchrony of diastolic cytosolic [Ca(2)(+)] decay in ventricular cardiomyocytes in cardiac remodeling and human heart failure,” Circ Res 2013, 113(5):527-538.
Mitochondrial Ca^2+ uptake was determined as previously described in detail. See Maxwell J T, Tsai C H, Mohiuddin T A, Kwong J Q: “Analyses of Mitochondrial Calcium Influx in Isolated Mitochondria and Cultured Cells,” Journal of visualized experiments: JoVE 2018(134). LA cardiomyocytes were loaded with Rhod-2 AM and MitoTracker green, transferred to an LSM 800 laser scanning microscope and washed twice with sodium and calcium-free wash solution. The cells were then permeabilized with internal solution containing 0.005% saponin for a duration of 30-60 s and consecutively washed twice with nominal Ca^2+ free internal solution containing 5 mM EGTA. Two-dimensional images of Rhod-2 (excitation: 559 nm, emission: 575-675 nm) and MitoTracker green fluorescence (excitation: 488 nm, emission: 505-525 nm) were obtained. The perfusion was switched to internal solution containing 2 μM Ca^2+. After 1 min, a second set of Rhod-2/MitoTracker images was obtained. Following another 1-min interval, a third set of images was obtained to confirm that mitochondrial Ca^2+ uptake had indeed been completed in the second set. A binary mask of mitochondrial structures was derived from MitoTracker green images and positive pixels defined as the region-of-interest for sub-sequent determination of Rhod-2 signal intensity (F). Signal intensity during perfusion with 0 μM Ca^2+ was defined as F0 and changes of [Ca^2+] after exposure to 2 μM Ca^2+ expressed as ΔF=F−F0. The change of mitochondrial density (L.%) was quantified as a measure of mitochondrial swelling.

[2] = system: LA cardiomyocytes; experiment: Sarcomere shortening of LA cardiomyocytes; format: cell-based, rat
Procedure: Ca^2+ measurements and sarcomere shortening. Radiometric Ca^2+ measurements (excitation: 340 nm and 385 nm, emission: 510±10 nm; [Ca^2+] expressed as the ratio R=F340/F380) were performed either with a CytoCypher MultiCell System (CytoCypher BV, Netherlands; FIGS. 1C-F, 2D-G, 4A-F) or an Axiovert 200 microscope (Zeiss, Oberkochen, Germany) fluorescence imaging assembly (FIGS. 2A-C, 2H-J, 3A-E, 6E-I). LA cardiomyocytes were loaded with Fura-2 for 30 min at room temperature, washed twice with Tyrode solution and transferred to the microscope. Experiments were conducted at 37° C. and CaT were recorded at steady state (following electric stimulation).
CaT and sarcomere shortening of LA and LV cardiomyocytes were recorded for 10 s at 3 Hz stimulation. See FIGS. 2D-G, 4A-F. Electric stimulation was turned off and spontaneous SR Ca^2+ release events (See Voigt N, Heijman J, Wang Q, Chiang D Y, Li N, Karck M, Wehrens X H T, Nattel S, Dobrev D: “Cellular and molecular mechanisms of atrial arrhythmogenesis in patients with paroxysmal atrial fibrillation,” Circulation 2014, 129(2):145-156) (SCaEs) immediately recorded for a duration of 10 s (FIG. 1C-F). In a sub-set of LA cells, CaT were recorded for 10 s at 1 Hz stimulation. Electric stimulation was turned off, the cells immediately exposed to 20 mM caffeine and the sub-sequent caffeine-induced CaT recorded for 10 s (FIG. 2A-C, 3A-E). Sodium-calcium exchanger (NCX) activity was calculated as previously described. See Hohendanner F, Walther S, Maxwell J T, Kettlewell S, Awad S, Smith G L, Lonchyna V A, Blatter L A: “Inositol-1,4,5-trisphosphate induced Ca^2+ release and excitation-contraction coupling in atrial myocytes from normal and failing hearts,” J Physiol 2015, 593(6):1459-1477.

[3] = system: LA cardiomyocytes; experiment: ROS production (H2-DCF) in LA cardiomyocytes; format: cell-based, rat; conditions: HFpEF
Procedure: ROS production. LA cardiomyocytes were starved of glucose for 1 h at 37° C., loaded with H2-DCF and transferred to an LSM 800 laser scanning microscope. Two-dimensional images (excitation: 488 nm, emission: […]) were acquired for a duration of 30 s (interval: 2 s, resolution: 256×256 px, pixel size: 0.624 μm, pixel time: 8.24 μs, laser intensity: 0.6%). Cells were exposed to 30 mM glucose and another set of images acquired for a duration of 90 s. Image sequences acquired between 0-30 s (glucose starved) and 90-120 s (glucose saturated) were individually assessed. H2-DCF signal intensity (F) of the initial image was defined as F0, reactive oxygen species (ROS) accumulation calculated as ΔF=F−F0 per image, averaged per image sequence and reported as the respective rate ΔF/(F0*t).

[4] = rats; 30 mg/kg/day; cited from earlier work

CCOc1ccc(Cc2cc([C@@H]3O[C@H](SC)[C@@H](O)[C@H](O)[C@H]3O)ccc2Cl)cc1 [sotagliflozin, (2S,3R,4R,5S,6R)-2-(4-chloro-3-(4-ethoxybenzyl)phenyl)-6-(methylthio)tetrahydro-2H-pyran-3,4,5-triol]
increased density of mitochondria in LA cardiomyocytes [1]: prevented | increase of mitochondrial Ca2+ uptake ([1]; Sota vs vehicle): two-fold increase | mitochondrial fission ([1]; after 1 h glucose starvation): significantly reduced | swelling of mitochondria ([1]; after exposure to 2 μM Ca2+): this effect did not occur | mitochondrial Ca2+ uptake ([1]; permeabilized cells, exposure from 0 μM to 2 μM Ca2+, vehicle 0.84±0.07): 1.76±0.27 AF/F0 | shortening of time-to-peak and relaxation time ([2]; HFpEF): this effect could not be observed | diastolic sarcomere length ([2]; HFpEF, 3 Hz, 5 mM extracellular [Ca2+]): significant increase | Ca2+ sensitivity ([2]; HFpEF, relationship of CaT and sarcomere shortening): reduced | sarcomere relaxation time ([2]; WT): shortened | sarcomere shortening time-to-peak ([2]; WT): shortened | decrease of ROS production after reintroduction of glucose ([3]; 30 mM glucose): this effect could not be observed | ROS production ([3]; after 1 h glucose starvation): significantly reduced | urinary glucose secretion [4]: near maximal
